In ChEMBL document CHEMBL1201862, “PubChem BioAssay data set” (2004):
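Interpolation was linear, between the two tested concentrations surrounding the appropriate level; five concentrations were tested over 48 hours in 96-well plates. GI50 marks 50% less growth.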 Calls of active or inactive are those of the source. Rule as the data show it: active = GI50 up to about 1.1 µM and inactive = higher.

What was measured:
Test in all cases: NCI-60 cell line screen, 48 h
OVCAR-8 = system: OVCAR-8
HCT-116 = system: HCT-116
NCI-H226 = system: NCI-H226
SW-620 = system: SW-620
HOP-18 = system: HOP-18
HCT-15 = system: HCT-15
M19-MEL = system: M19-MEL
HOP-62 = system: HOP-62
SK-MEL-28 = system: SK-MEL-28
UO-31 = system: UO-31
SF-539 = system: SF-539
OVCAR-3 = system: OVCAR-3
CAKI-1 = system: CAKI-1
LOX IMVI = system: LOX IMVI
ACHN = system: ACHN
NCI-H460 = system: NCI-H460
XF498 = system: XF498
UACC-257 = system: UACC-257
SNB-78 = system: SNB-78
M14 = system: M14
RPMI-8226 = system: RPMI-8226
A549 = system: A549
EKVX = system: EKVX
DMS-114 = system: DMS-114
A498 = system: A498
MOLT-4 = system: MOLT-4
DLD-1 = system: DLD-1
K562 = system: K562
SK-MEL-2 = system: SK-MEL-2
HT-29 = system: HT-29
SF-268 = system: SF-268
NCI-H522 = system: NCI-H522
SR = system: SR
SN12C = system: SN12C
Malme-3M = system: Malme-3M
OVCAR-4 = system: OVCAR-4
OVCAR-5 = system: OVCAR-5
SK-MEL-5 = system: SK-MEL-5
SNB-19 = system: SNB-19
SF-295 = system: SF-295
SNB-75 = system: SNB-75
UACC-62 = system: UACC-62
RXF 393 = system: RXF 393
COLO 205 = system: COLO 205
HOP-92 = system: HOP-92
HCC 2998 = system: HCC 2998
DMS-273 = system: DMS-273
U-251 = system: U-251
KM-20L2 = system: KM-20L2
TK-10 = system: TK-10
IGROV-1 = system: IGROV-1
KM12 = system: KM12
NCI-H23 = system: NCI-H23
786-0 = system: 786-0

COc1cccc(/C=C2\CCC(C)(CN(C)C)C2=O)c1 (centres undefined)
GI50 (OVCAR-8): > 100 µM (inactive)
GI50 (HCT-116): 58.2 µM (inactive)
GI50 (NCI-H226): > 100 µM (inactive)
GI50 (SW-620): 57 µM (inactive)
GI50 (HOP-18): > 100 µM (inactive)
GI50 (HCT-15): 35.6 µM
GI50 (M19-MEL): 98.2 µM (inactive)
GI50 (HOP-62): > 100 µM (inactive)
GI50 (SK-MEL-28): > 100 µM (inactive)
GI50 (UO-31): 81.5 µM (inactive)
GI50 (SF-539): > 100 µM (inactive)
GI50 (OVCAR-3): > 100 µM (inactive)
GI50 (CAKI-1): 29.4 µM (inactive)
GI50 (LOX IMVI): > 100 µM (inactive)
GI50 (ACHN): 98.9 µM (inactive)
GI50 (NCI-H460): > 100 µM (inactive)
GI50 (XF498): > 100 µM (inactive)
GI50 (UACC-257): > 100 µM (inactive)
GI50 (SNB-78): > 100 µM (inactive)
GI50 (M14): > 100 µM (inactive)
GI50 (RPMI-8226): 28.4 µM (inactive)
GI50 (A549): > 100 µM (inactive)
GI50 (EKVX): 46.5 µM (inactive)
GI50 (DMS-114): 69.3 µM (inactive)
GI50 (A498): > 100 µM (inactive)
GI50 (MOLT-4): 48.6 µM (inactive)
GI50 (DLD-1): 62.4 µM (inactive)
GI50 (K562): 43.7 µM (inactive)
GI50 (SK-MEL-2): > 100 µM (inactive)
GI50 (HT-29): 53.3 µM (inactive)
GI50 (SF-268): > 100 µM (inactive)
GI50 (NCI-H522): 30.7 µM (inactive)
GI50 (SR): 74.3 µM (inactive)
GI50 (SN12C): > 100 µM (inactive)
GI50 (Malme-3M): > 100 µM (inactive)
GI50 (OVCAR-4): 98.4 µM (inactive)
GI50 (OVCAR-5): > 100 µM (inactive)
GI50 (SK-MEL-5): 69 µM (inactive)
GI50 (SNB-19): 34.4 µM (inactive)
GI50 (SF-295): > 100 µM (inactive)
GI50 (SNB-75): > 100 µM (inactive)
GI50 (UACC-62): > 100 µM (inactive)
GI50 (RXF 393): > 100 µM (inactive)
GI50 (COLO 205): 60.1 µM (inactive)
GI50 (HOP-92): > 100 µM (inactive)
GI50 (HCC 2998): > 100 µM (inactive)
GI50 (DMS-273): 70.5 µM (inactive)
GI50 (U-251): > 100 µM (inactive)
GI50 (KM-20L2): 23 µM (inactive)
GI50 (TK-10): > 100 µM (inactive)
GI50 (IGROV-1): > 100 µM (inactive)
GI50 (KM12): 92.7 µM (inactive)
GI50 (NCI-H23): > 100 µM (inactive)
GI50 (786-0): > 100 µM (inactive)
